# Laboratory results published in PubChem BioAssay AID328 (DTP/NCI, 2004).
# Where “and” joins values, the source holds several entries; their conditions need not be identical. Identical values can stand only once. Inconclusive results and toxic doses are left out.
# Tested on: BDF1 mice, P388 leukemia ip, median survival T/C
# Assay: NCI In Vivo Anticancer Drug Screen. Data for tumor model P388 Leukemia (intraperitoneal) in B6D2F1 (BDF1) mice
# Details: endpoint: median survival time, higher = longer survival
# Summary of the method: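 Transplantable tumour in mice; compound vs vehicle dosing; survival scored; ratio of treated to control reported.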
# [1] = dose: 100.0 mg/kg/injection, schedule: Q01DX009 (ip), vehicle: saline with Tween-80
compound,measurement,setting,value
Cn1c(O)c(N=NC(N)=S)c2ccccc21,T/C,"dose: 10.0 mg/kg/injection, schedule: Q01DX009 (ip), vehicle: saline with Tween-80",102 % of control
same,T/C,"dose: 20.0 mg/kg/injection, schedule: Q01DX009 (ip), vehicle: saline with Tween-80",98 % of control
same,T/C,"dose: 40.0 mg/kg/injection, schedule: Q01DX009 (ip), vehicle: saline with Tween-80",115 % of control
same,T/C,"dose: 50.0 mg/kg/injection, schedule: Q01DX009 (ip), vehicle: saline with Tween-80",90 % of control
same,T/C,"dose: 80.0 mg/kg/injection, schedule: Q01DX009 (ip), vehicle: saline with Tween-80",120 % of control
same,T/C,[1],90 % of control
same,T/C,"dose: 160.0 mg/kg/injection, schedule: Q01DX009 (ip), vehicle: saline with Tween-80",113 % of control
same,T/C,"dose: 200.0 mg/kg/injection, schedule: Q01DX009 (ip), vehicle: saline with Tween-80",90 % of control
O=C1CN(Cc2ccc(Cl)cc2)CC(=O)N2CCCN12,T/C,"dose: 50.0 mg/kg/injection, schedule: Q01DX005 (ip), vehicle: saline with Tween-80",92 % of control
CC(C)c1c[nH]c(=O)[nH]c1=O,T/C,"dose: 100.0 mg/kg/injection, schedule: Q01DX001 (ip), vehicle: saline",100 % of control
same,T/C,"dose: 100.0 mg/kg/injection, schedule: Q04DX003 (ip), vehicle: Klucel (hydroxypropylcellulose) (HPC)",104 % of control
same,T/C,"dose: 200.0 mg/kg/injection, schedule: Q01DX001 (ip), vehicle: saline",95 % of control
same,T/C,"dose: 200.0 mg/kg/injection, schedule: Q04DX003 (ip), vehicle: Klucel (hydroxypropylcellulose) (HPC)",90 % of control
same,T/C,"dose: 400.0 mg/kg/injection, schedule: Q01DX001 (ip), vehicle: saline",100 % of control
same,T/C,"dose: 400.0 mg/kg/injection, schedule: Q04DX003 (ip), vehicle: Klucel (hydroxypropylcellulose) (HPC)",104 % of control
CCOC(=O)CCN(C)C,T/C,"dose: 100.0 mg/kg/injection, schedule: Q01DX009 (ip), vehicle: saline",102 % of control
same,T/C,"dose: 200.0 mg/kg/injection, schedule: Q01DX009 (ip), vehicle: saline",95 % of control
same,T/C,"dose: 400.0 mg/kg/injection, schedule: Q01DX009 (ip), vehicle: saline",102 % of control
CCO/C=C1\SC(=S)N(c2ccc(C(=O)O)cc2)C1=O,T/C,"dose: 11.0 mg/kg/injection, schedule: Q01DX009 (ip), vehicle: saline",104 % of control
same,T/C,"dose: 25.0 mg/kg/injection, schedule: Q01DX009 (ip), vehicle: saline",122 % of control
same,T/C,"dose: 37.5 mg/kg/injection, schedule: Q01DX009 (ip), vehicle: saline",100 % of control
same,T/C,[1],116 % of control
CN(C)c1ccc(C(O)(Cc2cccc(C#N)c2)c2ccc(N(C)C)cc2)cc1,T/C,"dose: 100.0 mg/kg/injection, schedule: Q04DX002 (ip), vehicle: saline with Tween-80",95 % of control
same,T/C,"dose: 200.0 mg/kg/injection, schedule: Q04DX002 (ip), vehicle: saline with Tween-80",89 % of control
same,T/C,"dose: 400.0 mg/kg/injection, schedule: Q04DX002 (ip), vehicle: saline with Tween-80",98 % of control
C[n+]1c2ccccc2nc2c(N)cc(N)cc21,T/C,"dose: 4.8 mg/kg/injection, schedule: Q01DX009 (ip), vehicle: saline with Tween-80",115 % of control
same,T/C,"dose: 7.3 mg/kg/injection, schedule: Q01DX009 (ip), vehicle: saline with Tween-80",115 % of control
same,T/C,"dose: 26.0 mg/kg/injection, schedule: Q01DX009 (ip), vehicle: saline with Tween-80",154 % of control
same,T/C,"dose: 41.0 mg/kg/injection, schedule: Q01DX009 (ip), vehicle: saline with Tween-80",154 % of control
same,T/C,"dose: 41.0 mg/kg/injection, schedule: Q01DX009 (ip), vehicle: water",185 % of control
O=C1CN(CCN2CC(=O)NC(=O)C2)CC(=O)N1,T/C,"dose: 3.12 mg/kg/injection, schedule: Q03HX024 (ip), vehicle: steriod suspending solution",105 % of control
same,T/C,"dose: 6.25 mg/kg/injection, schedule: Q03HX024 (ip), vehicle: steriod suspending solution",117 % of control
same,T/C,"dose: 12.5 mg/kg/injection, schedule: Q01DX009 (ip), vehicle: steriod suspending solution",94 % of control
same,T/C,"dose: 12.5 mg/kg/injection, schedule: Q03HX024 (ip), vehicle: steriod suspending solution",152 % of control
same,T/C,"dose: 15.0 mg/kg/injection, schedule: Q01DX010 (ip), vehicle: saline",314 % of control and 222 % of control
same,T/C,"dose: 25.0 mg/kg/injection, schedule: Q01DX009 (ip), vehicle: steriod suspending solution",105 % of control
same,T/C,"dose: 25.0 mg/kg/injection, schedule: Q03HX024 (ip), vehicle: steriod suspending solution",152 % of control
same,T/C,"dose: 30.0 mg/kg/injection, schedule: Q01DX010 (ip), vehicle: saline",272 % of control and 176 % of control
same,T/C,"dose: 50.0 mg/kg/injection, schedule: Q03HX024 (ip), vehicle: steriod suspending solution",123 % of control
same,T/C,"dose: 60.0 mg/kg/injection, schedule: Q01DX010 (ip), vehicle: saline",118 % of control and 219 % of control
same,T/C,"dose: 100.0 mg/kg/injection, schedule: Q01DX001 (ip), vehicle: steriod suspending solution",100 % of control
same,T/C,"dose: 100.0 mg/kg/injection, schedule: Q01DX009 (ip), vehicle: steriod suspending solution",164 % of control
same,T/C,"dose: 100.0 mg/kg/injection, schedule: Q04DX003 (ip), vehicle: steriod suspending solution",105 % of control
same,T/C,"dose: 200.0 mg/kg/injection, schedule: Q01DX001 (ip), vehicle: steriod suspending solution",105 % of control
same,T/C,"dose: 200.0 mg/kg/injection, schedule: Q04DX003 (ip), vehicle: steriod suspending solution",111 % of control
same,T/C,"dose: 400.0 mg/kg/injection, schedule: Q01DX001 (ip), vehicle: steriod suspending solution",111 % of control
same,T/C,"dose: 800.0 mg/kg/injection, schedule: Q01DX001 (ip), vehicle: steriod suspending solution",117 % of control
same,T/C,"dose: 800.0 mg/kg/injection, schedule: Q04DX003 (ip), vehicle: steriod suspending solution",182 % of control
